A short description of the series: Pharmacokinetics in male beagle dogs. Type of series: in vivo. The conditions noted are these: plasma, Dog. On the procedure: Male Sprague-Dawley (SD) rats (300–350 g) were fasted overnight, and three per group received BMS-869780 either as an intravenous (IV) infusion in PEG400 : ethanol (90 : 10 w/w) at 1 mg/kg over 5 min via the jugular vein or as nanosuspension (d50 ca. 300 nm) by oral gavage at 5 mg/kg in Povidone K-30 : sodium lauryl sulfate : water (2.5 : 0.12 : 97.38 w/w/w/w). For the IV infusion, serial blood samples were obtained before dose and at 0.17, 0.25, 0.5, 0.75, 1, 2, 4, 6, 8, and 24 hours after dose. For the PO nanosuspension, serial blood samples were obtained before dose and at 0.25, 0.5, 0.75, 1, 2, 4, 6, 8, and 24 h after dose. Blood samples, ~0.3 mL, for all studies were collected from the jugular vein into K3EDTA-containing tubes and then centrifuged at 4°C (1500–2000 ×g) to obtain plasma, which was stored at −20°C until analysis by LC/MS/MS. In male beagle dogs, the PK of BMS-869780 was evaluated in a cross-over study design with a one-week washout between treatments. Dogs were fasted overnight, and three animals (9.5 to 10.7 kg) received BMS-869780 by IV infusion at 1 mg/kg over 5 minutes in PEG400 : ethanol (90 : 10 w/w) or as nanosuspension (d50 ca. 300 nm) by oral gavage at 5 mg/kg in Povidone K-30 : sodium lauryl sulfate : water (2.5 : 0.12 : 97.38 w/w/w/w). Serial blood samples (~0.3 mL) were collected from a saphenous vein into K3EDTA-containing tubes before dose and at 0.083, 0.17, 0.25, 0.5, 0.75, 1, 2, 4, 6, 8, and 24 hours after IV dose, and 0.25, 0.5, 0.75, 1, 2, 4, 6, 8, and 24 hours after oral dose, followed by centrifugation at 4°C (1500 to 2000 ×g) to obtain plasma. Samples were stored at −20°C until analysis of BMS-869780 levels by LC-MS/MS. In male cynomolgus monkeys, the PK of BMS-869780 was evaluated in a cross-over study design with a 1-week washout between treatments. Following an overnight fast, three animals (4.5 to 8 kg) received BMS-869780 by IV infusion via a femoral vein at 1 mg/kg over 10 minutes in PEG400 : ethanol (90 : 10), or by oral gavage at 5 mg/kg in Povidone K-30 : sodium lauryl sulfate : water (2.5 : 0.12 : 97.38). Serial blood samples, ~0.3 mL, were collected from a femoral artery into K3EDTA-containing tubes before dose and at 0.083, 0.17, 0.25, 0.5, 0.75, 1, 2, 4, 6, 8, and 24 hours after IV dose, and 0.25, 0.5, 0.75, 1, 2, 4, 6, 8, and 24 hours after oral dose, followed by centrifugation at 4°C (1500 to 2000 ×g) to obtain plasma. Samples were stored at −20°C until analysis of BMS-869780 levels by LC-MS/MS. The PK parameters of BMS-869780 were obtained by noncompartmental analysis of plasma concentration versus time data (WinNonlin software, Version 5.0; Pharsight Corporation, Mountain View, CA). The peak concentration (C max) and time for C max (T max) were recorded directly from experimental observations. The area under the curve from time zero to the last sampling time (AUC^0-T) and the area under the curve from time zero to infinity (AUC^INF) were calculated using a combination of linear and log trapezoidal summations. The total plasma clearance (CLTp), steady-state volume of distribution (Vss), apparent elimination half-life (T 1/2), and mean residence time (MRT) were estimated after IV administration. The absolute oral bioavailability (F) was estimated as the ratio of dose-normalized AUC values following oral and IV doses.
Figure 9 Pharmacokinetics (PK) of BMS-869780 across species for prediction of human PK. Rats, dogs, and cynomolgus monkeys were dosed with BMS-869780 intravenously (IV ▲) at 1 mg/kg or oral nanosuspension (PO ●) at 5 mg/kg. Plasma concentrations of BMS-869780 were determined for up to 24 hours after the dose. (a) Rat. (b) Dog. (c) Cynomolgus monkey.

Molecules are shown by their SMILES.

A word on the AUC(0-t): it is the area under the concentration-time curve up to a stated or last time point. The term MRT denotes the average time that molecules of a dose stay in the body. As a reminder, the clearance is a measure of how efficiently the substance is removed, as volume per time. As a reminder, the half-life is how long it takes for the measured level to halve. In general, Cmax refers to the peak of the concentration-time curve. The Tmax is the time at which the peak concentration occurs. By bioavailability is commonly meant dose-corrected exposure relative to a reference, in per cent. Take `COc1cc(Nc2nc3n(n2)CCCC[C@H]3c2ccc(F)cc2)ccc1-n1cnc(Cl)c1` [BMS-869780]: for the setting “IV 1 mg/kg”, the AUC(0-t) was determined as 6.64 ± 2.26 µM·h, the MRT was 6.6 ± 2 h, the clearance was determined as 5.7 ± 1.7 mL/min/kg and the half-life was 5.2 ± 1.4 h. The Vd (IV 1 mg/kg, read-out: Vss) came to 2.2 ± 0.8 L/kg. For the setting “PO suspension 5 mg/kg”, the AUC(0-t) was found to be 4.55 ± 2.16 µM·h, the Cmax turned out to be 487 ± 155 nM, the time of peak concentration (Tmax) was found to be 1.7 ± 0.6 h and the bioavailability came to 13%.

(Values after article PMC4109680, “Identification and Preclinical Pharmacology of the γ-Secretase Modulator BMS-869780” (International Journal of Alzheimer's Disease, 2014).)
